Measured values reported in ChEMBL document CHEMBL1127230, “New non-peptide angiotensin II receptor antagonists. 2: structure - activity relationship of a series of annelated 2(1H)-pyridinones” (Bioorg Med Chem Lett, 1994).

Columns and labels:
Rattus norvegicus [1] = assay: In vivo potency determined as dose given iv to produce reduction in angiotensin II pressor response in normotensive rats; type: functional; details: read-out: ID50 (the source's name)
[2] = target: Angiotensin II receptor (Homo sapiens) (UniProt P30556+P50052); assay: In vitro functional antagonistic affinity measured against angiotensin II receptor in paired rings of rabbit aorta; type: tissue-based; details: Oryctolagus cuniculus, target entry is the homologue from another species
[3] = target: T1, Type-1 angiotensin II receptor (Bos taurus, UniProt P25104); assay: Inhibition of [125I]AII binding to angiotensin II receptor of bovine adrenal cortex; type: tissue-based; details: read-out: EC50 (the source's name)
T1 sequence (P25104 whole entry): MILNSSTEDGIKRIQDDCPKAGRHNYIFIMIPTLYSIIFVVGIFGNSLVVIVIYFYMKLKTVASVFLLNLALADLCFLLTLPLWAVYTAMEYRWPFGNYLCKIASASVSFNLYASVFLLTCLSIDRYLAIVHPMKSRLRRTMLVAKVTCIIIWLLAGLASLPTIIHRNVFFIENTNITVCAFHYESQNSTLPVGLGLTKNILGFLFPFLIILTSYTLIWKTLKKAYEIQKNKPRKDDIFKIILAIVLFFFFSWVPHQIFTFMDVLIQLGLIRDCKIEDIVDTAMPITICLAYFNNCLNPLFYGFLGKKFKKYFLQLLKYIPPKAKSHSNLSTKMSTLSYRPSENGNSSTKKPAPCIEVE

Rattus norvegicus [4] = assay: Tested for in vitro inhibition of specific binding of [125I]AII for bolus injection of 0.3 mg/kg lasting up to 90 min post dose; type: functional; details: 1.5 h

| Compound | pKB [2] | IC50 [3] | ED50 (Rattus norvegicus [1]) | inhibition in vivo at 0.3 mg/kg (Rattus norvegicus [4]) |
| --- | --- | --- | --- | --- |
| CCc1cc2c(O)c(-c3ccccc3)c(=O)n(Cc3ccc(-c4ccccc4-c4nn[nH]n4)cc3)c2s1 |  | 90 nM | 5 mg/kg |  |
| CCCc1cc2ncnc-2c(O)n1Cc1ccc(-c2ccccc2-c2nn[nH]n2)cc1 | 9.1 |  | 0.18 mg/kg |  |
| Cc1ccc2c(O)c(-c3ccccc3)c(=O)n(Cc3ccc(-c4ccccc4-c4nn[nH]n4)cc3)c2n1 | 7 |  |  |  |
| CCc1ccc2c(O)c(-c3ccccc3)c(=O)n(Cc3ccc(-c4ccccc4C(=O)O)cc3)c2c1 | 7.2 |  |  |  |
| CS(=O)(=O)c1ccc2c(O)c(-c3ccccc3)c(=O)n(Cc3ccc(-c4ccccc4-c4nn[nH]n4)cc3)c2c1 | 5.9 | ~30000 nM |  |  |
| CCOc1ccc2c(O)c(-c3ccccc3)c(=O)n(Cc3ccc(-c4ccccc4-c4nnn[nH]4)cc3)c2c1 |  | 500 nM |  |  |
| O=c1c(-c2ccccc2)c(O)c2c(n1Cc1ccc(-c3ccccc3-c3nnn[nH]3)cc1)CCC2 |  | 1250 nM |  |  |
| CCCc1cc2c(ncn2C)c(=O)n1Cc1ccc(-c2ccccc2-c2nn[nH]n2)cc1 | 7.6 |  |  |  |
| COc1ccc2c(O)c(C(C)=O)c(=O)n(Cc3ccc(-c4ccccc4C(=O)O)cc3)c2c1 | 6.6 |  |  |  |
| CCCCc1nc(Cl)c(CO)n1Cc1ccc(-c2ccccc2-c2nnn[nH]2)cc1 [LOSARTAN] | 8.3 |  | 1.2 mg/kg |  |
| COc1ccc2c(O)c(-c3ccccc3)c(=O)n(Cc3ccc(-c4ccccc4C(=O)O)cc3)c2c1 | 6.7 | 9500 nM |  |  |
| O=c1c(-c2ccccc2)c(O)c2ccc([N+](=O)[O-])cc2n1Cc1ccc(-c2ccccc2-c2nn[nH]n2)cc1 | 7.5 |  |  |  |
| CCCc1cc2ncn(C)c2c(=O)n1Cc1ccc(-c2ccccc2-c2nn[nH]n2)cc1 | 10.2 |  | < 0.3 mg/kg | > 50% |
| O=c1c(-c2ccccc2)c(O)c2c(n1Cc1ccc(-c3ccccc3-c3nn[nH]n3)cc1)CCC2 | 7.2 |  |  |  |
| CCc1cc2c(O)cc(=O)n(Cc3ccc(-c4ccccc4-c4nn[nH]n4)cc3)c2s1 | 9.6 |  |  |  |

Further lines, with some results ahead:

| pKB [2] | IC50 [3] | Compound | ED50 (Rattus norvegicus [1]) | inhibition in vivo at 0.3 mg/kg (Rattus norvegicus [4]) |
| --- | --- | --- | --- | --- |
| 7.4 |  | COc1ccc2c(O)c(-c3ccccc3)c(=O)n(Cc3ccc(-c4ccccc4-c4nn[nH]n4)cc3)c2c1 | 2.5 mg/kg |  |
| 7.1 |  | CCCCc1nc(Cl)c(CO)n1Cc1ccc(-c2ccccc2C(=O)O)cc1 |  |  |
| 8.9 |  | CCOc1ccc2c(O)cc(=O)n(Cc3ccc(-c4ccccc4-c4nn[nH]n4)cc3)c2c1 |  |  |
|  | 2200 nM | COc1ccc2c(O)c(-c3ccccc3)c(=O)n(Cc3ccc(-c4ccccc4-c4nnn[nH]4)cc3)c2c1 |  |  |
| 6.6 |  | CCCCc1c(O)c2ccc(OC)cc2n(Cc2ccc(-c3ccccc3C(=O)O)cc2)c1=O |  |  |
| 6.4 |  | CCCc1cc2nc(O)nc-2c(O)n1Cc1ccc(-c2ccccc2-c2nn[nH]n2)cc1 |  |  |
| 7.8 |  | CCOc1ccc2c(O)c(Cc3ccccc3)c(=O)n(Cc3ccc(-c4ccccc4C(=O)O)cc3)c2c1 |  |  |
| 7.4 | 6000 nM | O=c1c(-c2ccccc2)c(O)c2sccc2n1Cc1ccc(-c2ccccc2-c2nn[nH]n2)cc1 | 3.2 mg/kg |  |
| 8.3 |  | COc1ccc2c(O)cc(=O)n(Cc3ccc(-c4ccccc4-c4nn[nH]n4)cc3)c2c1 | 1.08 mg/kg |  |
| 7.5 |  | O=c1c(Cc2ccccc2)c(O)c2ccccc2n1Cc1ccc(-c2ccccc2-c2nn[nH]n2)cc1 |  |  |
| 7.2 | 1700 nM | O=c1c(-c2ccccc2)c(O)c2ccccc2n1Cc1ccc(-c2ccccc2-c2nn[nH]n2)cc1 | 1.2 mg/kg |  |
| 6.6 | 600 nM | CSc1ccc2c(O)c(-c3ccccc3)c(=O)n(Cc3ccc(-c4ccccc4-c4nn[nH]n4)cc3)c2c1 |  |  |
| 7.1 |  | CCOc1ccc2c(O)c(-c3ccccc3)c(=O)n(Cc3ccc(-c4ccccc4-c4nn[nH]n4)cc3)c2c1 | 1.3 mg/kg |  |
| 7.7 | 1800 nM | CCOc1ccc2c(O)c(-c3ccccc3)c(=O)n(Cc3ccc(-c4ccccc4C(=O)O)cc3)c2c1 |  |  |
|  | 1250 nM | Cc1ccc2c(O)c(-c3ccccc3)c(=O)n(Cc3ccc(-c4ccccc4-c4nnn[nH]4)cc3)c2n1 |  |  |
| 6.3 |  | COc1ccc2c(O)cc(=O)n(Cc3ccc(-c4ccccc4C(=O)O)cc3)c2c1 |  |  |
